Reference: ChEMBL document CHEMBL1201862, “PubChem BioAssay data set” (2004)
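A five-concentration, 48-hour dose response in 96-well plates underlies each endpoint, interpolated linearly between surrounding concentrations. GI50 is the concentration that inhibits growth by half.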 The source made the active and inactive calls. Rule as the data show it: active = GI50 up to about 1.1 µM and inactive = higher. Where a SMILES comes first, the peptide text is derived from it.

Tests used:
Assay in all cases: NCI tumour cell line growth inhibition, 48 h
NCI/ADR-RES = system: NCI/ADR-RES
HCT-15 = system: HCT-15
MDA-MB-231 = system: MDA-MB-231
KM12 = system: KM12
NCI-H23 = system: NCI-H23
OVCAR-3 = system: OVCAR-3
RXF 393 = system: RXF 393
CCRF-CEM = system: CCRF-CEM
A549 = system: A549
OVCAR-4 = system: OVCAR-4
SK-OV-3 = system: SK-OV-3
MCF7 = system: MCF7
SF-539 = system: SF-539
A498 = system: A498
UACC-62 = system: UACC-62
PC-3 = system: PC-3
NCI-H460 = system: NCI-H460
Hs-578T = system: Hs-578T
U-251 = system: U-251

SMILES | GI50 (NCI/ADR-RES) | GI50 (HCT-15) [µM] | GI50 (MDA-MB-231) | GI50 (KM12) | GI50 (NCI-H23) | GI50 (OVCAR-3) | GI50 (RXF 393) | GI50 (CCRF-CEM) | GI50 (A549) | GI50 (OVCAR-4) | GI50 (SK-OV-3) | GI50 (MCF7) | GI50 (SF-539) | GI50 (A498) | GI50 (UACC-62) | GI50 (PC-3) | GI50 (NCI-H460) | GI50 (Hs-578T) | GI50 (U-251)
CCOc1ccc2nc(NC(=O)C(=O)C(c3cnc4ccccc4n3)[N+](=O)[O-])sc2c1 (centres undefined) | > 100 µM (inactive) | > 100 | > 100 µM (inactive) | > 100 µM (inactive) | 74.5 µM (inactive) | > 100 µM (inactive) | > 100 µM (inactive) | 44.8 µM (inactive) | > 100 µM (inactive) | > 100 µM (inactive) | > 100 µM (inactive) | > 100 µM (inactive) | > 100 µM (inactive) | > 100 µM (inactive) | > 100 µM (inactive) | > 100 µM (inactive) | > 100 µM (inactive) | > 100 µM (inactive) | 
COCCOCc1nc(C#N)c(N)o1 | > 100 µM (inactive) | > 100 | > 100 µM (inactive) | > 100 µM (inactive) | > 100 µM (inactive) | > 100 µM (inactive) | > 100 µM (inactive) | > 100 µM (inactive) | > 100 µM (inactive) | > 100 µM (inactive) | > 100 µM (inactive) | > 100 µM (inactive) | > 100 µM (inactive) | > 100 µM (inactive) | > 100 µM (inactive) | > 100 µM (inactive) | > 100 µM (inactive) | > 100 µM (inactive) | > 100 µM (inactive)
S=C(N/N=C(/c1ccccc1)c1ccccn1)Nc1ccc(Cl)cc1 | 0.195 µM (active) | 0.067 | < 0.0106 µM (active) | 1.07 µM (active) |  | < 0.0316 µM (active) | 1.85 µM (inactive) | < 0.0155 µM (active) | 1.97 µM (inactive) | 5.06 µM (inactive) | 0.175 µM (active) | 0.0258 µM (active) | 1.45 µM (inactive) | 3.3 µM (inactive) | 0.59 µM (active) | 0.0476 µM (active) | 0.531 µM (active) | 0.873 µM (active) | 0.124 µM (active)
CC1(C)N=C2C(=O)c3c([nH]c4ccccc34)[C@]3(C)CCC1CC23 (some centres undefined) | > 6.25 µM (inactive) | > 6.25 | > 6.25 µM (inactive) | > 6.25 µM (inactive) | > 6.25 µM (inactive) | > 6.25 µM (inactive) | > 6.25 µM (inactive) | > 6.25 µM (inactive) | > 6.25 µM (inactive) | > 6.25 µM (inactive) |  | > 6.25 µM (inactive) | > 6.25 µM (inactive) | > 6.25 µM (inactive) |  | > 6.25 µM (inactive) | > 6.25 µM (inactive) | > 6.25 µM (inactive) | > 6.25 µM (inactive)
CC(=O)NC(CS)C(=O)NC(CO)C(=O)NC(CO)C(=O)NC(Cc1c[nH]c2ccccc12)C(=O)N1CCCC1C(=O)NC(CO)C(=O)NC(Cc1c[nH]c2ccccc12)C(=O)NC(Cc1c[nH]cn1)C(=O)NC(CO)C(=O)NC(Cc1c[nH]c2ccccc12)C(=O)NCC(=O)NCC(=O)NC(CC(=O)O)C(=O)NC(CCC(N)=O)C(=O)NC(CCCCN)C(=O)NC(Cc1ccccc1)C(=O)NC(CCCNC(=N)N)C(=O)NC(CCCCN)C(N)=O (centres undefined) (Ac-CSSWPSWHSWGGDQKFRK-NH2; configuration not given here) | > 25 µM (inactive) | > 25 | > 25 µM (inactive) | > 25 µM (inactive) | > 25 µM (inactive) | > 25 µM (inactive) | > 25 µM (inactive) | > 25 µM (inactive) | > 25 µM (inactive) | > 25 µM (inactive) | > 25 µM (inactive) | > 25 µM (inactive) | > 25 µM (inactive) | > 25 µM (inactive) | > 25 µM (inactive) | > 25 µM (inactive) | > 25 µM (inactive) | > 25 µM (inactive) | > 25 µM (inactive)
CC12CCC(=O)C=C1CCC1C2CCC2(C)C(C(=O)Cn3cnc4c(=S)nc[nH]c43)CCC12 (centres undefined) | 62.4 µM (inactive) | 58.6 | 38.9 µM (inactive) | 37.9 µM (inactive) | 24.5 µM (inactive) | 18.2 µM (inactive) | 17.6 µM (inactive) | 25.5 µM (inactive) | 48.1 µM (inactive) | 17.3 µM (inactive) | 33.5 µM (inactive) | 18.1 µM (inactive) | 55.5 µM (inactive) | 29.9 µM (inactive) | 23.8 µM (inactive) | 63.7 µM (inactive) | 28.8 µM (inactive) | 52 µM (inactive) | 30.1 µM (inactive)
COc1cc(/C=C2\CCc3cc(OC)c(OC)cc3C2=O)cc(OC)c1 | 3.15 µM (inactive) | 3.62 | 12.9 µM (inactive) | 4.88 µM (inactive) | 10.9 µM (inactive) | 4.47 µM (inactive) | 4.9 µM (inactive) | 4.08 µM (inactive) | 5.2 µM (inactive) | 21.4 µM (inactive) | 14.2 µM (inactive) | 4.2 µM (inactive) | 5.38 µM (inactive) | 6.82 µM (inactive) | 3.75 µM (inactive) | 8.55 µM (inactive) | 5.41 µM (inactive) | 23.9 µM (inactive) | 6.28 µM (inactive)
